The values below come from patent publication US8367723B2, “Selenoquinone-derived active organometallic complexes, methods for synthesizing same, and uses thereof” (Centre National de la Recherche Scientifique—CNRS, priority 2009, dated 2013).

One may read the IC50 as the point on the concentration scale where inhibition reaches its midpoint. Read a high IC50 as weaker potency in that assay.

In one assay the test system is A2780 ovarian cancer cells. The assay can be described thus: MTT cytotoxicity test on A2780 ovarian cancer cells. The class given is cell-based. Conditions: A2780 ovarian cancer cell line, 72 hours incubation. As to the method: (§1) The biological (cytotoxicity) properties of the complexes synthesized above were tested on A2780 and A2780cisR (cisplatin-resistant) ovarian cancer cells according to a conventional procedure described below, and the IC50 values obtained were compared with those obtained under the same conditions with the cisplatin complex Pt (NH3)2Cl2.
(§2) The A2780 and A2780cisR ovarian cancer cell lines were obtained from The European Collection of Cell Cultures (ECACC) (Salisbury, UK). The cells were cultured in RPMI medium comprising glucose, 5% of fetal calf serum (FCS) and antibiotics, at 37° C. and 5% CO2.
(§3) The cytotoxicity was determined using the MTT (3-(4,5-dimethyl-2-thiazolyl)-2,5-diphenyl-2H-tetrazolium bromide) test (MOSMANN, 1983).
(§4) The cells were distributed in 96-well plates, as monolayers, with 100 μl of solution (approximately 20 000 cells) per well, and were preincubated for 24 hours in a medium supplemented with 10% of FCS.
(§5) The compounds were prepared in DMSO solution, were then dissolved in the culture medium and were successively diluted to the appropriate concentration, in order to obtain a final DMSO concentration of 0.5%. 100 μl of solution of these compounds were added to each well and the plates were incubated for 72 hours. Subsequently, MTT (5 mg/ml) was added to the cells and the plates were incubated for 2 hours. The culture medium was removed by suction and the purple formazan crystals formed by the mitochondrial dehydrogenase activity of the living cells were dissolved in DMSO.
(§6) The optical density, which is directly proportional to the number of living cells, was quantified at 540 nm using a multiwell plate reader and the fraction of living cells was quantified from the absorbance of untreated control cells. Evaluation was carried out from two independent experiments, each comprising 3 microcultures per concentration level.
(In general: Formazan colour is commonly taken as a measure of viable cells.)
Regarding “p-[(C5Me5)Ir(η^4-monoselenobenzoquinone)] [compound 9]”, it took 12.3 µM to reach half-maximal inhibition (IC50).
On the same count and under the same terms, in the case of “p-[(C5Me5)Ir(η^4-dithiobenzoquinone)] [compound 6]” it was 154 µM; in that of “o-[(C5Me5)Ir(η^4-benzoquinone)] [compound 3]”, more than 400 µM.
In the case of “o-[(C5Me5)Rh(η^4-benzoquinone)] [compound 1]”, the IC50 is more than 400 µM.
On the same count and under the same terms, the same measure for “p-[(C5Me5)Ir(η^4-diselenobenzoquinone)] [compound 8]”: 5 µM.
Same read-out and setting: the same measure for “p-[(C5Me5)Ir(η^4-benzoquinone)] [compound 4]”: 93 µM.
Same read-out and setting: the same measure for “p-[(C5Me5)Ir(η^4-2,5-dimethyldiselenobenzoquinone)] [compound 10]”: 6.2 µM.
In turn, “o-[(C5Me5)Ir(η^4-dithiobenzoquinone)] [compound 5]” displayed an IC50 of 49 µM.
On the same count and under the same terms, the same measure for `N.N.[Cl][Pt][Cl]` [cis-[Pt(NH3)2Cl2], cis-diamminedichloroplatinum(II)]: 3 µM; for “p-[(C5Me5)Rh(η^4-benzoquinone)] [compound 2]”: more than 400 µM.

Another assay concerns A2780cisR (cisplatin-resistant) ovarian cancer cells. The assay can be described thus: MTT cytotoxicity test on A2780cisR (cisplatin-resistant) ovarian cancer cells. Conditions: A2780cisR (cisplatin-resistant) cell line, 72 hours incubation. It counts as cell-based. As for the experimental part:
as §1, §2, §3, §4, §5, §6
Compound “p-[(C5Me5)Ir(η^4-monoselenobenzoquinone)] [compound 9]” yielded a half-inhibitory concentration (IC50) of 8.4 µM.
For “p-[(C5Me5)Ir(η^4-2,5-dimethyldiselenobenzoquinone)] [compound 10]”, the midpoint of inhibition, the IC50, lay at 7.3 µM.
The same measure, in the same setting: the same measure for `N.N.[Cl][Pt][Cl]` [cis-[Pt(NH3)2Cl2], cis-diamminedichloroplatinum(II)]: 25 µM.
